*1 amine or outer side, *2 acyl side, *3 side chain or, on linkers, in order; H or OH if unused. Where a SMILES comes first, the peptide text is derived from it. [ ]: non-standard residue; d: D form. The star is where a group is joined. ξ: configuration not given here. Doxorubicin(3'-N) = COc1cccc2c1C(=O)c1c(O)c3c(c(O)c1C2=O)C[C@@](O)(C(=O)CO)C[C@@H]3O[C@H]1C[C@H](N*)[C@H](O)[C@H](C)O1; Dolaproine(all-ξ) = COC(C(C)C(=O)[*:2])C1CCCN1[*:1]; Dolaproine = CO[C@@H]([C@@H]1CCCN1)[C@@H](C)C(=O)O; Dil = CC[C@H](C)[C@H](NC)[C@@H](CC(=O)O)OC; X1 = CCC(C)C(C(CC(=O)[*:2])OC)N(C)[*:1]; PABC = O=C(OCc1ccc(N[*:1])cc1)[*:2]; X3 = C[C@@H](N*)[C@@H](O)c1ccccc1; MeOCH2CH2OCH2CO = COCCOCC(=O)*; NMeV = CN[CH](C(=O)O)C(C)C; X2 = CC(N*)C(O)c1ccccc1; Cbz = O=C(OCc1ccccc1)*
Assays:
[1] = tested on: Human breast cancer MDA-MB231 cells; type: in vivo, nude mice; details: for tumor inhibition rate (%): mouse, in vivo
Protocol: 1) Human breast cancer MDA-MB231 cells were purchased from American type culture collection (ATCC) and identified according the specification provided by ATCC. Cells were cultivated in […] (DMEM culture medium) containing 10% fetal bovine serum at 37° C. and 5% CO2. The cells were passaged for every three days and cells within the 15th passage were used.
2) Production of tumor. 5×10^6 MDA-MB231 cells were subcutaneously injected to the back of the nude mice. Mice were randomly grouped after the tumor reached at least 100 mm^3. Then treatment began and the day on which the treatment began was day 1.
3) Course of treatment. […] The drugs were administered once weekly for four weeks.
When R1 is 2-(2-Methoxyethoxy)Acetyl, and R3 is Ala, activation study and efficacy study were carried out by using compounds having different cleavable linker. The study methods are identical to those in Examples 10, 11 and 12. The in vitro activation efficiency was tested by asparagine endopeptidase and the tumor inhibition rate was tested by using human breast cancer MDA-MB231 model. […]

asparagine endopeptidase = biological target: T1, asparagine endopeptidase (Homo sapiens, UniProt Q99538)
T1 sequence (Q99538 26-323 limits assumed): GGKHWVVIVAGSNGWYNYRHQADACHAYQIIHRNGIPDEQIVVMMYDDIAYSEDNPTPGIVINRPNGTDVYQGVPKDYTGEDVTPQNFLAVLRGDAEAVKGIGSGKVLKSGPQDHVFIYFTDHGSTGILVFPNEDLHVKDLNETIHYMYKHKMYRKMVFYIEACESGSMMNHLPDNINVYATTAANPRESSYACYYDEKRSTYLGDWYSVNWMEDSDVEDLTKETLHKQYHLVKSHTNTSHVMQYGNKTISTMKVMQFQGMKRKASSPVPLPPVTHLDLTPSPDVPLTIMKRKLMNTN
Protocol: Reduction of reactant and increase of product were detected by HPLC, thereby comparing the activation efficiency of these compounds.
When R1 is 2-(2-Methoxyethoxy)Acetyl, and R3 is Ala, activation study and efficacy study were carried out by using compounds having different cleavable linker. The study methods are identical to those in Examples 10, 11 and 12. The in vitro activation efficiency was tested by asparagine endopeptidase and the tumor inhibition rate was tested by using human breast cancer MDA-MB231 model.

HEK293 cells = type: cell-based
Protocol: Toxicity detection method: a standard universal test program was used to perform the in vitro cytotoxicity test. 2500 HEK293 cells were cultured in a 96-well plate, and allowed to grow overnight. Cytotoxic compounds and their corresponding conjugated compounds were added into each well in different concentrations, cultivated with the cells at 37° C. for 72 hours, and then treated with MTT reagents. OD changes were read. The approximate multiples of the toxicity change were obtained by comparing the IC50 of the modified compounds to their corresponding cytotoxic compounds.

D121 lung tumor cells = type: in vivo, C57 mice
Protocol: 1) D121 lung tumor cells were purchased from ATCC. Cells were cultivated in DMEM culture solution containing 10% fetal bovine serum at 37° C. and 5% CO2. The cells were passaged for every three days and cells within the 15th passage were used.
(§1) 2) Tumor immunization. 5×10^5 D121 lung cancer cells (purchased from ATCC) which were killed by irradiation were intraperitoneally injected to mice. The mice were injected for 3 times, once every two weeks. After immunization, mice were injected with tumor cells and the drugs were administered weekly for 4 weeks.
3) Production of tumor. At day 32, 10^6 live lung tumor cells were subcutaneously injected to the back of the C57 mice immunized by tumor. Treatment began when the tumor grew to 0.3-0.4 cm.
as §1, with “4 weeks. In table 16 below the immune group was immuned with D121 lung tumor cells and the group without dead D121 lung tumor cells was injected with physiological saline as controls.” for “4 weeks.”
3) Production of tumor. After immunization (4 weeks later), 10^6 live lung tumor cells were subcutaneously injected to the back of the C57 mice immunized by tumor. Treatment began when the tumor grew to 0.3-0.4 cm. Tumor size (mm^3) were noted and tumor inhibition rates were calculated.
as §1, with “4 weeks. In the table below the immune group was immuned with D121 lung tumor cells and the group without dead D121 lung tumor cells was injected with physiological saline as controls.” for “4 weeks.”
3) Production of tumor. At day 32, 10^6 live D121 lung tumor cells were subcutaneously injected to the back of the C57 mice immunized by tumor. Treatment began when the tumor grew to 0.3-0.4 cm.
1) D121 lung tumor cells were purposed from ATCC. Cells were cultivated in DMEM culture solution containing 10% fetal bovine serum at 37° C. and 5% CO2. The cells were passaged for every three days and cells within the 15th passage were used.

Human heart = type: biochemical; details: Human heart homogenate; 1 mg/ml compound
[2] = tested on: Human breast cancer MDA-MB435 tumor tissue homogenate; type: biochemical; details: Human breast cancer MDA-MB435 tumor tissue homogenate (30 μg/ml); 1 mg/ml compound
Protocol: (§2) At 37 °C, sample compounds were added into 100 μg acidized tumor tissue homogenates (pH6.0) in a concentration of 1 mg/ml.
(§3) At 37 °C, sample compounds were added into 100 μg acidized human breast cancer (MDA-MB435) tumor tissue homogenates (pH6.0) in a concentration of 1 mg/ml.
(§4) […], sample compounds were added into 100 μg acidized tumor tissue homogenates (pH6.0) in a concentration of 1 mg/ml.
as §3
(§5) At 37 °C, sample compounds were added into 100 μg acidized tumor tissue homogenates in a concentration of 1 mg/ml.
(§6) In the experiments, at 37 °C, compounds were added into proteases in 100 μg acidized tumor tissue homogenates in a concentration of 1 mg/ml. […] Meanwhile certain compounds produced in the screening were compared and their activation efficiency in same tissue was analyzed.
(§7) At 37° C., compounds were added into proteases in 100 μg acidized tumor tissue homogenates in a concentration of 1 mg/ml.

[3] = tested on: Human colon cancer HT-29 tumor tissue homogenate; type: biochemical; details: Human colon cancer HT-29 tumor tissue homogenate (30 μg/ml); 1 mg/ml compound
Protocol: as §2, §4, §5, §6, §7

[4] = tested on: Human chronic leukemia K562 tumor tissue homogenate; type: biochemical; details: Human chronic leukemia K562 tumor tissue homogenate (30 μg/ml); 1 mg/ml compound
Protocol: as §2, §4, §5, §6, §7

[5] = tested on: Human liver cancer Hepg2 tumor tissue homogenate; type: biochemical; details: Human liver cancer Hepg2 tumor tissue homogenate (30 μg/ml); 1 mg/ml compound
Protocol: as §2, §4, §5, §6, §7

[6] = tested on: Human pancreatic cancer Panc-1 tumor tissue homogenate; type: biochemical; details: Human pancreatic cancer Panc-1 tumor tissue homogenate (30 μg/ml); 1 mg/ml compound
Protocol: as §2, §4, §5, §6, §7

[7] = tested on: Human non-small cell lung cancer A549 tumor tissue homogenate; type: biochemical; details: Human non-small cell lung cancer A549 tumor tissue homogenate (30 μg/ml); 1 mg/ml compound
Protocol: as §2, §4, §5, §6, §7

[8] = tested on: Human renal cancer OS-RC-2 tumor tissue homogenate; type: biochemical; details: Human renal cancer OS-RC-2 tumor tissue homogenate (30 μg/ml); 1 mg/ml compound
Protocol: as §2, §4, §5, §6, §7

tumor CD8+ T cells = type: in vivo, C57 mice; details: D121 immunized C57 mice, 13.2 μmol/kg; ratio of CD8 positive cells in CD45 positive cells of tumor
Protocol: (§8) 4) Analysis on tumor CD8+ T cells. The tumor tissue was homogenated and individual cells in the tumor were filtered, separated and washed by buffer twice, then cultivated with the leucocyte common antigen CD45-PE and CD8-FITC marked antibodies for 1 hour at ambient temperature. The cells were washed by phosphate buffer containing 1% fetal bovine serum twice and then analyzed for the ratio of the T lymphocyte antigen (CD8) positive cells in the leucocyte common antigen (CD45) positive cells by flow cytometry.
as §8, with “CD45-PE and T-lymphocyte antigen CD8-FITC marked” for “CD45-PE and CD8-FITC marked”, “flow cytometry. Increasement of the ratio indicates increased T lymphocyte cells and thus the animal immunity against the tumor was improved.” for “flow cytometry.”
as §8, with “cytometry. Increasement of the ratio indicates increased T lymphocyte cells and thus the animal immunity against the tumor was improved.” for “cytometry.”

Question: Which results are given for `CC[C@H](C)[C@@H]([C@@H](CC(=O)N1CCC[C@H]1[C@H](OC)[C@@H](C)C(=O)N[C@H](C)[C@@H](O)c1ccccc1)OC)N(C)C(=O)[C@@H](NC(=O)[C@H](C(C)C)N(C)C(=O)OCc1ccc(NC(=O)[C@H](CC(N)=O)NC(=O)[C@H](C)NC(=O)[C@H](C)NC(=O)OCc2ccccc2)cc1)C(C)C` [CBZ-AAN-PABC-MMAE] (Cbz-AAN[PABC][NMeV]V[Dil][Dolaproine]-X3)?
Answer: tumor inhibition rate (%) [1]: 9.7%; Cleaving efficiency (asparagine endopeptidase): 2.6%; Cytoxicity reduced (Multiples) (HEK293 cells): 8.3 Multiples

Question: Which results are given for `CCC(C)C(C(CC(=O)N1CCCC1C(OC)C(C)C(=O)NC(C)C(O)c1ccccc1)OC)N(C)C(=O)C(NC(=O)C(C(C)C)N(C)C(=O)OCc1ccc(NC(=O)C(CC(N)=O)NC(=O)C(C)NC(=O)C(C)NC(=O)COCCOC)cc1)C(C)C` (stereo not drawn) [PEG-AAN-PABC-MMAE] (MeOCH2CH2OCH2CO-AAN[PABC][NMeV]V[X1][Dolaproine(all-ξ)]-X2; configuration not given here)?
Answer: tumor inhibition rate (%) [1]: 34.4%; Cleaving efficiency (asparagine endopeptidase): 14.4%; Cytoxicity reduced (Multiples) (HEK293 cells): 22 Multiples

Question: What does the source list for `COCCOCC(=O)N[C@@H](C)C(=O)N[C@@H](C)C(=O)N[C@@H](CC(N)=O)C(=O)N[C@@H](CC(C)C)C(=O)N[C@H]1C[C@H](O[C@H]2C[C@](O)(C(=O)CO)Cc3c(O)c4c(c(O)c32)C(=O)c2c(OC)cccc2C4=O)O[C@@H](C)[C@H]1O` [PEG-AANL-DOX] (MeOCH2CH2OCH2CO-AANL-{Doxorubicin(3'-N)})?
Answer: tumor inhibition rate (%) [1]: 60.3%; Cleaving efficiency (asparagine endopeptidase): 66.5%; Cytoxicity reduced (Multiples) (HEK293 cells): 110.2 Multiples

Question: Which “tumor inhibition rate (%)” value [1] does the source give for `CC[C@H](C)[C@@H]([C@@H](CC(=O)N1CCC[C@H]1[C@H](OC)[C@@H](C)C(=O)N[C@H](C)[C@@H](O)c1ccccc1)OC)N(C)C(=O)[C@@H](NC(=O)[C@H](C(C)C)N(C)C(=O)OCc1ccc(NC(=O)[C@H](CC(N)=O)NC(=O)[C@H](C)NC(=O)[C@H](C)NC(C)=O)cc1)C(C)C` [AC-AAN-PABC-MMAE] (Ac-AAN[PABC][NMeV]V[Dil][Dolaproine]-X3) here?
Answer: 16.7%

Question: What about the Cleaving efficiency (asparagine endopeptidase) of the same compound?
Answer: 3.4%

Question: What about the “Cytoxicity reduced (Multiples)” value (HEK293 cells) of the same compound?
Answer: 15.5 Multiples

Question: Which “Size of tumor (mm^3) Day 18” value (D121 lung tumor cells; D121 immunized C57 mice, 13.2 μmol/kg weekly, PDL1 antibody 5 μg/kg where combined, Day 18) does the source give for `COCCOCC(=O)N[C@H](C(=O)N[C@@H](C)C(=O)N[C@@H](CC(N)=O)C(=O)Nc1ccc(COC(=O)N[C@H]2C[C@H](O[C@H]3C[C@](O)(C(C)=O)Cc4c(O)c5c(c(O)c43)C(=O)c3c(OC)cccc3C5=O)O[C@@H](C)[C@H]2O)cc1)C(C)O` (stereo partly drawn) [Compound S4, 4-N—(N—(N—(N-2-(2-methoxyethoxy)acetyl-L-threonyl)-L-alanyl)-L-asparaginyl)-amino benzyl alcohol-daunorubicin-carbamate] here?
Answer: 316.78 ± 109.98 mm^3

Question: And the “Treatment effects on C57 mice, in words” value (D121 lung tumor cells; compared to the control group and the other treatment groups)?
Answer: greatly improved

Question: And the “Activation Efficiencies (%)” value (Human heart)?
Answer: 2.8%

Question: What about the “Activation Efficiencies (%)” value [2] of the same compound?
Answer: 83.5%

Question: And the “Size of tumor (mm^3) Day 10” value ([1]; MDA-MB231, nude mice, IV 13.2 μmol/kg once weekly for four weeks, Day 10)?
Answer: 95.56 ± 57.54 mm^3

Question: What about the “Size of tumor (mm^3) Day 24” value ([1]; MDA-MB231, nude mice, IV 13.2 μmol/kg once weekly for four weeks, Day 24) of the same compound?
Answer: 64.68 ± 43.56 mm^3

Question: What about the “Effect on tumor growth, in words” value ([1]; compared to control, camptothecin, capecitabine and daunorubicin groups) of the same compound?
Answer: strong inhibitory effect on tumor growth

Question: What about the “Activation Efficiencies (%)” value [3] of the same compound?
Answer: 83.5%

Question: What about the “Activation Efficiencies (%)” value [4] of the same compound?
Answer: 64.5%

Question: And the “Activation Efficiencies (%)” value [5]?
Answer: 67.3%

Question: And the “Activation Efficiencies (%)” value [6]?
Answer: 67.3%

Question: And the “Activation Efficiencies (%)” value [7]?
Answer: 64.5%

Question: And the “Activation Efficiencies (%)” value [8]?
Answer: 78.5%

Question: And the “CD8: CD45 (%)” value (tumor CD8+ T cells)?
Answer: 16.8%

Question: And the “Cytoxicity reduced (Multiple)” value (HEK293 cells; HEK293, 72 hours, MTT, IC50 of modified compound compared to its corresponding cytotoxic compound, approximate multiples)?
Answer: 345 Multiple

Reference: patent publication US10682371B2, “Small molecule conjugates specifically activated in tumor microenvironment for targeting and use thereof” (priority 2014, dated 2020)
